The source of these data is patent publication US10993436B2 (priority 2016, dated 2021).

In the assay the test system is Fusarium graminearum. It is filed as cell-based. Conditions: enzyme disk 119 nM where (+) enzyme, 5 days.

Where two headings read alike, the source gives them in different places.

As for mancozeb, the “Reduction in F. graminearum growth relative to non-treated controls” value is on record as 6% cd (Mancozeb 0.5 mg/l), 1% d (Mancozeb 2 mg/l), 17% cd (Mancozeb 5 mg/l) and 26% bcd (Mancozeb 10 mg/l).
